Test results from PubChem BioAssay (NCI).
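Each compound was tested at five concentrations against cells in 96-well plates for 48 hours. Here, GI50 denotes the concentration required for 50% inhibition of growth. Definition used: TGI = concentration required for complete inhibition of growth.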

Experiments:
Assay in all cases: inhibition of tumour cell growth, NCI panel, 48 h
A498 renal = test system: A498 renal
DMS 114 small cell lung = test system: DMS 114 small cell lung
HOP-18 NSCLC = test system: HOP-18 NSCLC
HOP-92 NSCLC = test system: HOP-92 NSCLC
K-562 leukemia = test system: K-562 leukemia
OVCAR-4 ovarian = test system: OVCAR-4 ovarian
SF-268 CNS = test system: SF-268 CNS
SK-MEL-2 melanoma = test system: SK-MEL-2 melanoma
SN12C renal = test system: SN12C renal
LOX IMVI melanoma = test system: LOX IMVI melanoma
XF 498 CNS = test system: XF 498 CNS

In the case of `Cc1ccc(NC(=O)C2C(=O)C(=O)N(c3ccc(C)cc3)C2=O)cc1` (configuration not stated), the TGI (A498 renal) is reported as greater than 100 µM, the TGI (DMS 114 small cell lung) is reported as greater than 100 µM and the TGI (HOP-18 NSCLC) is reported as greater than 100 µM. It also gave a TGI (HOP-92 NSCLC) greater than 100 µM, a TGI (K-562 leukemia) greater than 100 µM and a TGI (OVCAR-4 ovarian) greater than 100 µM. The TGI (SF-268 CNS) was greater than 100 µM, the TGI (SK-MEL-2 melanoma) was greater than 100 µM and the TGI (SN12C renal) was greater than 100 µM.

`S=C1CNC(=S)CN1` showed a TGI (A498 renal) greater than 100 µM, a TGI (DMS 114 small cell lung) greater than 100 µM and a TGI (HOP-18 NSCLC) greater than 100 µM. It also gave a TGI (HOP-92 NSCLC) greater than 100 µM, a TGI (K-562 leukemia) greater than 100 µM and a TGI (LOX IMVI melanoma) greater than 100 µM. The TGI (OVCAR-4 ovarian) was greater than 100 µM, the TGI (SF-268 CNS) was greater than 100 µM and the TGI (SK-MEL-2 melanoma) was greater than 100 µM. The TGI (SN12C renal) was greater than 100 µM.

With `CCOC(=O)/C(=C/c1cc(OC)ccc1OC)CC(=O)O` the TGI (A498 renal) was greater than 100 µM, the TGI (DMS 114 small cell lung) was greater than 100 µM and the TGI (HOP-18 NSCLC) was greater than 100 µM. The TGI (HOP-92 NSCLC) was greater than 100 µM, the TGI (K-562 leukemia) was greater than 31.6 µM and the TGI (LOX IMVI melanoma) was greater than 100 µM. For the same compound, the TGI (OVCAR-4 ovarian) was greater than 100 µM, the TGI (SF-268 CNS) was greater than 100 µM and the TGI (SK-MEL-2 melanoma) was 34.5 µM. For the same compound, the TGI (SN12C renal) was greater than 100 µM and the TGI (XF 498 CNS) was greater than 56.7 µM.

`C=CCOC1=C2CC[C@H](O)[C@@]2(C)CCC1=O` was tested, and the TGI (A498 renal) was greater than 100 µM, the TGI (DMS 114 small cell lung) was greater than 100 µM and the TGI (HOP-18 NSCLC) was greater than 100 µM. It also gave a TGI (HOP-92 NSCLC) greater than 100 µM, a TGI (LOX IMVI melanoma) greater than 100 µM and a TGI (OVCAR-4 ovarian) greater than 100 µM. It also gave a TGI (SF-268 CNS) greater than 100 µM and a TGI (SN12C renal) greater than 100 µM.

`CCCCCCCCCCCCCCCCc1c(C(=O)OC)[nH]c(=S)[nH]c1=O` gave a TGI (A498 renal) greater than 50 µM, a TGI (HOP-18 NSCLC) greater than 50 µM and a TGI (HOP-92 NSCLC) of 41 µM. It also gave a TGI (K-562 leukemia) greater than 50 µM, a TGI (LOX IMVI melanoma) greater than 50 µM and a TGI (OVCAR-4 ovarian) greater than 50 µM. The TGI (SF-268 CNS) was greater than 50 µM, the TGI (SK-MEL-2 melanoma) was greater than 50 µM and the TGI (SN12C renal) was greater than 50 µM. The TGI (XF 498 CNS) was greater than 50 µM.

`Cc1cc(=O)[nH]c(CNC(=O)c2cccc3ccccc23)n1` was tested, and the TGI (A498 renal) was greater than 100 µM, the TGI (HOP-92 NSCLC) was greater than 100 µM and the TGI (K-562 leukemia) was greater than 100 µM. It also gave a TGI (LOX IMVI melanoma) greater than 100 µM, a TGI (OVCAR-4 ovarian) greater than 100 µM and a TGI (SF-268 CNS) greater than 100 µM. For the same compound, the TGI (SN12C renal) was greater than 100 µM and the TGI (XF 498 CNS) was greater than 100 µM.

For `[Ce+3].[Cl-].[O-]/N=C(\c1ccccc1)c1ccccn1.[O-]/N=C(\c1ccccc1)c1ccccn1.[O-]/N=C(\c1ccccc1)c1ccccn1`, the GI50 (A498 renal) was 54 µM, the TGI (A498 renal) was greater than 100 µM and the GI50 (DMS 114 small cell lung) was 28.3 µM. The TGI (DMS 114 small cell lung) was 85 µM, the GI50 (HOP-92 NSCLC) was 25.1 µM and the TGI (HOP-92 NSCLC) was greater than 100 µM. For the same compound, the GI50 (K-562 leukemia) was 36.3 µM, the TGI (K-562 leukemia) was greater than 100 µM and the GI50 (LOX IMVI melanoma) was 26 µM. It also gave a TGI (LOX IMVI melanoma) of 64.7 µM, a GI50 (OVCAR-4 ovarian) of 55 µM and a TGI (OVCAR-4 ovarian) greater than 100 µM. For the same compound, the GI50 (SF-268 CNS) was 44.4 µM, the TGI (SF-268 CNS) was greater than 100 µM and the GI50 (SK-MEL-2 melanoma) was 30.9 µM. For the same compound, the TGI (SK-MEL-2 melanoma) was 76.6 µM, the GI50 (SN12C renal) was 47.9 µM and the TGI (SN12C renal) was greater than 100 µM.

Work on `c1ccc2c(c1)nnn1c3cnccc3nc21` yielded a TGI (A498 renal) greater than 100 µM, a TGI (DMS 114 small cell lung) of 69.5 µM and a TGI (HOP-18 NSCLC) greater than 100 µM. It also gave a TGI (HOP-92 NSCLC) of 67 µM, a TGI (K-562 leukemia) of 69.6 µM and a TGI (LOX IMVI melanoma) greater than 100 µM. For the same compound, the TGI (OVCAR-4 ovarian) was 96.6 µM, the TGI (SF-268 CNS) was greater than 100 µM and the TGI (SK-MEL-2 melanoma) was greater than 100 µM. The TGI (SN12C renal) was greater than 100 µM.

`Nc1ccccc1S(=O)c1ccccc1` (configuration not stated) was tested, and the TGI (A498 renal) was greater than 100 µM, the TGI (DMS 114 small cell lung) was greater than 100 µM and the TGI (HOP-18 NSCLC) was greater than 100 µM. The TGI (HOP-92 NSCLC) was greater than 100 µM, the TGI (K-562 leukemia) was greater than 100 µM and the TGI (LOX IMVI melanoma) was greater than 100 µM. It also gave a TGI (OVCAR-4 ovarian) greater than 100 µM, a TGI (SF-268 CNS) greater than 100 µM and a TGI (SK-MEL-2 melanoma) greater than 100 µM. It also gave a TGI (SN12C renal) greater than 100 µM and a TGI (XF 498 CNS) greater than 100 µM.

Work on `OCC1OC(n2ccc3cnccc32)CC1O` (configuration not stated) yielded a TGI (A498 renal) greater than 100 µM, a TGI (DMS 114 small cell lung) greater than 100 µM and a TGI (HOP-18 NSCLC) greater than 100 µM. The TGI (HOP-92 NSCLC) was greater than 100 µM, the TGI (K-562 leukemia) was greater than 100 µM and the TGI (LOX IMVI melanoma) was greater than 100 µM. It also gave a TGI (OVCAR-4 ovarian) greater than 100 µM, a TGI (SK-MEL-2 melanoma) greater than 100 µM and a TGI (SN12C renal) greater than 100 µM.

Work on `COC(=O)C1C2CC3C(OC(=O)C31)C2I` (configuration not stated) yielded a TGI (A498 renal) greater than 100 µM, a TGI (DMS 114 small cell lung) greater than 100 µM and a TGI (HOP-92 NSCLC) greater than 100 µM. For the same compound, the TGI (K-562 leukemia) was greater than 100 µM, the TGI (LOX IMVI melanoma) was greater than 100 µM and the TGI (OVCAR-4 ovarian) was greater than 100 µM. The TGI (SF-268 CNS) was greater than 100 µM, the TGI (SK-MEL-2 melanoma) was greater than 100 µM and the TGI (SN12C renal) was greater than 100 µM.

In the case of `Cc1cc(NC(=O)NC(=O)c2ccccc2[N+](=O)[O-])ccc1Oc1ncc(Cl)cn1`, the TGI (A498 renal) is reported as 19.6 µM, the TGI (DMS 114 small cell lung) is reported as greater than 100 µM and the TGI (HOP-18 NSCLC) is reported as 91.1 µM. For the same compound, the TGI (K-562 leukemia) was greater than 100 µM, the TGI (LOX IMVI melanoma) was greater than 100 µM and the TGI (OVCAR-4 ovarian) was 31.3 µM. The TGI (SF-268 CNS) was greater than 82.3 µM, the TGI (SN12C renal) was greater than 81.6 µM and the TGI (XF 498 CNS) was 17.9 µM.

Work on `COC1OC(COCc2ccc(Cl)cc2)C(OCc2ccc(Cl)cc2)C1O` (configuration not stated) yielded a TGI (DMS 114 small cell lung) of 32.8 µM, a TGI (HOP-18 NSCLC) of 25.7 µM and a TGI (HOP-92 NSCLC) of 25.1 µM. For the same compound, the TGI (K-562 leukemia) was 38.5 µM, the TGI (LOX IMVI melanoma) was 32.8 µM and the TGI (OVCAR-4 ovarian) was greater than 100 µM. For the same compound, the TGI (SF-268 CNS) was 35.5 µM, the TGI (SK-MEL-2 melanoma) was 30.6 µM and the TGI (SN12C renal) was 31.8 µM. For the same compound, the TGI (XF 498 CNS) was 16 µM.
